The results in this text go back to patent EP0421419A2, “Tocotrienols in the treatment of hypercholesterolemia, hyperlipidemia and thromboembolic disorders” (Bristol-Myers Squibb Company, priority 1989, dated 1991).

≈ marks a conversion by molar mass, not a printed value. Like-named read-outs stand apart in the source and are kept apart here.

In one assay the test system is Lipid Metabolism. Put plainly: Lipid metabolism in genetically hypercholesterolemic swine fed compound in diet. It counts as in vivo. Conditions: 4 weeks; for Serum Cholesterol: 75 ppm in corn-soybean meal control diet, control 406.7(±12.8); for HDL-Cholesterol [% of Control] / LDL-Cholesterol [% of Control] / Serum Cholesterol [% of Control] / Serum Triglycerides [% of Control] / HDL/LDL / HDL-Cholesterol / Serum Triglycerides / LDL-Cholesterol: 75 ppm in diet; for HDL/LDL: control 0.078; for HDL-Cholesterol: control 28.8(±1.1); for Serum Triglycerides: control 67.9(±2.8); for LDL-Cholesterol: control 367.1(±15.7). The text has this:
Genetically hypercholesterolemic swine (3 per group) were fed for four weeks on either a standard corn-soybean-based control diet or an experimental diet. The experimental diet consisted of the standard mix containing either gamma-tocotrienol or delta-tocotrienol at 75 ppm. The same protocol used for the chicken study was used for the swine group, except HMG-CoA reductase levels were not determined in this case. […] The HDL/LDL atherogenic index as before improved dramatically with drug treatment (Table 7).

For assay [1], the system named is Cholesterol Synthesis in HepG2 Cells. The assay can be described thus: HepG2 cell culture model, 14C-acetate incorporation assay. Conditions: Homo sapiens, HepG2; 10 µM, about 4 hours; read-out: % Inhibition 14C-Ac. It counts as cell-based, human. Here is the method:
HepG2 cells obtained from the American Type Culture Collection were routinely passaged in RPMI-1640 plus 10% fetal bovine serum (FBS) and were subcultured into 35 mm diameter wells for experiments. […] The LDS medium supplement was prepared according to Cham et al., J. Lipid Res., 17: 176-181, (1976). After about 16 hours in LDS containing media, test compounds were added in dimetthylsulfoxide vehicle (0.5% v/v final conc.) for the period of time indicated in the data (generally 4 hours). Cholesterol synthesis was then directly determined by the incorporation of 2-14C-acetate (1.8-3.0 mCi/mmol) into digitonin-precipitable sterols essentially as described for the rat hepatocyte methol above. Greater than 97% of the radiolabelled sterol isolated by this procedure was cholesterol as judged by HPLC. Percent inhibition was calculated from the average of duplicates or triplicates vs. controls receiving vehicle.
(§1) The human hepatoma HepG2 cell culture model was employed to compare the intrinsic activities of the tocotrienols. HepG2 cells were incubated with the indicated compounds for about 4 hours at 10 µM. Cholestrol synthesis was assayed by 14C-acetate incorporation and HMG-CoA reductase suppression was assayed in the isolated microsomal fraction. Cholesterol synthesis inhibition was assayed by 14C-acetate incorporation after preincubation of HepG2 cells with the compounds for about 2 hours or about 4 hours (Example IV). […] As the data in Figure 1 indicate, gamma-tocotrienol has an even greater relative potency compared to alpha-tocotrienol in the HepG2 cell model than in rat hepatocytes. The IC50s from these studies are given in Table 3, in which it can be seen that the intrinsic potency of gamma-tocotrienol is over 30-fold greater than that of alpha-tocotrienol.

Assay [2] has as its system HMG-CoA reductase. The assay can be described thus: HMG-CoA reductase specific activity in chickens fed compound in diet. The class given is in vivo. Conditions: 20 ppm in corn control diet, 4 weeks; for HMG-CoA Reductase Specific Acticity: 6-week old male chickens, control 1086.9(±114.0). Here is the method: Natural gamma-tocotrienol and delta-tocotrienol were evaluated for their hypocholesterolemic action in normocholesterolemic chickens and genetically hypercholesterolemic swine. Newborn male chicks (10 for each group) were raised on a standard corn-soybean-based control diet for two weeks and then were switched to either control or experimental diets for four weeks. Drug treatment consisted of the addition of gamma-tocotrienol or delta-tocotrienol to the corn-soybean-based diet at a concentration of 20 ppm. At the end of the feeding period, all the birds were fasted (about 36 hours) and refed (about 48 hours) to induce cholesterolgenic emzymes prior to sacrifice. The specific activity of HMG-CoA reductase, total serum cholesterol levels, HDL/LDL cholesterol pools, and serum triglyceride levels were examined (Table 5).

The subject of assay [3] is Cholesterol Synthesis in Isolated Rat Hepatocytes. The assay can be described thus: Rat hepatocyte cholesterol biosynthesis model (14C-acetate incorporation into digitonin-precipitable sterols). The class given is cell-based. Conditions: for inhibition at 125 µg/mL / inhibition at 250 µg/mL / inhibition at 500 µg/mL / IC50: Rattus norvegicus, Hepatocyte, 45 min preincubation, 30 min incorporation. Here is the method: Primary rat parenchymal hepatocytes were prepared from male Wistar rats (180-220 g) at mid-dark in the diurnal cycle by standard collagenase perfusion method as described previously. Ingebritsen et al. J. Biol. Chem., 254: 9986-9989, (1979). Aliquots of cells were suspended (100 mg in 2 ml) in Eagle's minimum essential medium (MEM) supplemented with 2% bovine albumin, and preincubated in a shaking water bath at about 37° under 95% O₂/5% CO₂ with compounds added as given in the data. […] Following a preincubation of about 15 to about 45 minutes as indicated, cholesterol synthesis in intact cells was assayed by 2-14C-acetate (1.8 mCi/mmol, 0.5 µCi/ml) incorporation for about 30 to about 60 minutes (previously shown to be time-linear) into total digitonin-precipitable sterols. […] Percent inhibition was calculated from the average of duplicates vs. triplicate vehicle controls conducted simultaneously.
The primary rat hepatocyte assay for cholesterol bio-synthesis inhibition was conducted as described in Example 2 except the preincubation was about 45 minutes and the 14C-acetate incorporation was about 30 minutes. The indicated compounds were purified from the same natural product source as the mixture used in Example 2. […] Two-component mixtures of the constituents separated from the tocotrienol mixture were tested under the conditions indentical to Table 2A.

Assay [4] has as its system HMG-CoA reductase. Put plainly: HepG2 cell culture model, HMG-CoA reductase suppression assay. The class given is cell-based, human. Conditions: 10 µM, about 4 hours, HepG2 cells. Here is the method:
HMG-CoA reductase suppression in HepG2 cells was conducted by growing cells in RPMT-1640 plus 10% FBS on 100 mm plates, and when cells reached approximately 75% confluency, inducing with LDS (as described above) for about 16 hours prior to assays. Compounds were added using dimethylsulfoxide vehicle (0.5% v/v, final) and after about 4 hours of incubation at 37°, cells were harvested by scraping. Cell pellets were rinsed and lysed by sonication in 1.7 ml cold 50 mM imidazole-HCL, pH 7.2, 50 mM NaCl, 10 mM EDTA, 10 mM EGTA, 5 mM DTT, and 40µM leupeptin). Lysates were centriguged at 150 x g and the supernatant was centrifuged at 100,000 x g in a Beckman airfuge to isolate the post-nuclear total membrane fraction. The membranes were resuspended in 50 mM imidazole-HCl, pH 7.2, 250 mM NaCl, 5 mM DTT, and 20µM leupeptin and used for the assay of HMG-CoA reductase activity by the radiochemical procedure as described previously by Parker et al., J. Biol. Chem., 264: 4877-4887, (1989). Values were normalized for protein content by the Lowry method as cited previously (ibid). HMG-CoA reductase percent suppression was calculated as the decrease in specific activity of HMG-CoA reductase for treated cells vs. controls receiving vehicle. Averages of duplicate cell determinations assayed in duplicate were taken.
as §1
The mechanism of cholesterol synthesis inhibition by tocotrienols involves down regulation of the limiting enzyme of sterol synthesis, HMG-CoA reductase. […] The suppression of HMG-CoA reductase protein expression by gamma-tocotrienol and delta-tocotrienol in HepG2 cells and in rat liver has been confirmed by immunoassy using the Western blot technique (data not shown).

`CC(C)=CCC/C(C)=C/CC/C(C)=C/CC[C@]1(C)CCc2cc(O)c(C)c(C)c2O1` [d-γ-tocotrienol]: in the assay with Lipid Metabolism, the “Serum Cholesterol” value is 212.8(±9.0) mg/dl, the “HDL-Cholesterol [% of Control]” value is given as 104.5%, the “LDL-Cholesterol [% of Control]” value is reported as 46.0% and the “Serum Cholesterol [% of Control]” value was found to be 51.3%. For the same molecule, in the assay on Lipid Metabolism, the “Serum Triglycerides [% of Control]” value was 76.4%, the HDL/LDL was determined as 0.172, the HDL-Cholesterol is recorded as 29.8(±2.9) mg/dl and the “Serum Triglycerides” value was 50.9(±3.1) mg/dl. Besides, the LDL-Cholesterol with Lipid Metabolism is given as 172.8(±7.1) mg/dl. In addition, the inhibition at 10 µM in assay [1] came out at 78%. In the assay with HMG-CoA reductase [2], the “HMG-CoA Reductase Specific Acticity [% of Control]” value is listed as 45.5% and the “HMG-CoA Reductase Specific Acticity” value is on record as 494.2(±22.9). Further, the inhibition at 125 µg/mL in assay [3] (read-out: % Inhibition at µg/ml conc: 125, 125 µg/ml, Expt. # 2) was 28%. The inhibition at 250 µg/mL in assay [3] (read-out: % Inhibition at µg/ml conc: 250, 250 µg/ml, Expt. # 1) was found to be 48%. Moreover, the inhibition at 250 µg/mL in assay [3] (read-out: % Inhibition at µg/ml conc: 250, 250 µg/ml, Expt. # 2) amounted to 34%. In addition, the inhibition at 500 µg/mL in assay [3] (read-out: % Inhibition at µg/ml conc: 500, 500 µg/ml, Expt. # 1) was found to be 60%. The inhibition at 500 µg/mL in assay [3] (read-out: % Inhibition at µg/ml conc: 500, 500 µg/ml, Expt. # 2) came out at 61%. Moreover, in assay [3] (read-out: IC₅₀, Expt. # 1), the IC50 is 270 µg/mL (≈ 658 µM). Also, the IC50 in assay [3] (read-out: IC₅₀, Expt. # 2) is 360 µg/mL (≈ 877 µM). In addition, the “% Suppression HMG-CoA Reductase” value in the assay on HMG-CoA reductase [4] was found to be 64%.

Regarding `CC(C)=CCC/C(C)=C/CC/C(C)=C/CC[C@]1(C)CCc2cc(O)cc(C)c2O1` [d-δ-tocotrienol], in the assay with Lipid Metabolism, the “Serum Cholesterol” value is recorded as 214.9(±18.6 mg/dl, the “HDL-Cholesterol [% of Control]” value is recorded as 105.3%, the “LDL-Cholesterol [% of Control]” value is listed as 44.8% and the “Serum Cholesterol [% of Control]” value is reported as 47.7%. Besides, in the assay with Lipid Metabolism, the “Serum Triglycerides [% of Control]” value stood at 70.3%, the HDL/LDL is reported as 0.189, the HDL-Cholesterol is reported as 34.4(±1.9) mg/dl and the “Serum Triglycerides” value is given as 44.4(±1.3) mg/dl. The LDL-Cholesterol in the assay with Lipid Metabolism is recorded as 182.2(±8.2) mg/dl. Besides, the inhibition at 10 µM in assay [1] was 79%. Also, in the assay on HMG-CoA reductase [2], the “HMG-CoA Reductase Specific Acticity [% of Control]” value is listed as 50.6% and the “HMG-CoA Reductase Specific Acticity” value is 550.2(±33.8). Moreover, the inhibition at 125 µg/mL in assay [3] (125 µg/ml, Expt. # 2, read-out: % Inhibition at µg/ml conc: 125) came out at 26%. For the same molecule, in assay [3] (250 µg/ml, Expt. # 1, read-out: % Inhibition at µg/ml conc: 250), the inhibition at 250 µg/mL is 49%. Further, the inhibition at 250 µg/mL in assay [3] (250 µg/ml, Expt. # 2, read-out: % Inhibition at µg/ml conc: 250) came out at 33%. Besides, the inhibition at 500 µg/mL in assay [3] (500 µg/ml, Expt. # 1, read-out: % Inhibition at µg/ml conc: 500) came to 62%. Besides, the inhibition at 500 µg/mL in assay [3] (500 µg/ml, Expt. # 2, read-out: % Inhibition at µg/ml conc: 500) amounted to 63%. Further, in assay [3] (Expt. # 1, read-out: IC₅₀), the IC50 stood at 260 µg/mL (≈ 656 µM). Moreover, the IC50 in assay [3] (Expt. # 2, read-out: IC₅₀) amounted to 340 µg/mL (≈ 857 µM). Moreover, in assay [3] (rat and chicken hepatocyte system), the “times more active than alpha-tocotrienol” value was “at least 5 times”. The “% Suppression HMG-CoA Reductase” value in the assay on HMG-CoA reductase [4] worked out at 65%.
